Test results: US6239171A, “Tocotrienols and tocotrienol-like compounds and methods for their use” (Lipogenics, Inc., priority 1998, dated 2001)
Values belong to the compound of their own block, whether it stands above or below them.

Columns and labels:
[1] = tested on: chickens; assay: Serum cholesterol, apolipoproteins, triglycerides and glucose in chickens fed supplemented diets; assay type: in vivo, chicken; conditions: control diet + 50 ppm, 4 weeks
From the text: All assays conducted on chicken or swine serum were done following the protocols described in A. A. Qureshi et al., "Lowering Of Serum Cholesterol In Hypercholesterolemic Humans By Tocotrienols" (Palmvitee), Am. J. Clin. Nutr., 53, pp. 1021S-26S (1991). All enzymatic assays were done following the protocols described in A. A. Qureshi et al., "Effects of Cereals and Culture Filtrate of Trichoderma viride on Lipid Metabolism of Swine", Lipids, 17, pp. 924 (1982). Plasma insulin, glucagon and TNF levels were measured using radioinnumoassay kits from Ventrex Laboratories, Inc. (Portland, Me.), ICN Biomedicals, Inc. (Costa Mesa, Calif.) and Genzyme Corp. (Cambridge, Mass.), respectively. […]
Each group of 6 chickens (6-week old female while leghorn) was administered the chick mash diet described in Example 5, supplemented with one of three different amounts of waxes (sterols), 50 ppm of TRF (prepared as in Example 2) or 5% equivalent of the methanol insoluble fraction Louisiana rice bran oil. […] The birds were fasted for a period of 14 hours prior to sacrifice (at 0800 hours). […]

[2] = biological target: T1, HMG-CoA reductase (Homo sapiens, UniProt P04035); assay: Hepatic HMG-CoA reductase activity in chickens fed supplemented diets; assay type: in vivo, chicken; conditions: control diet + 50 ppm, 4 weeks
T1 construct: hepatocytes isolated from livers of 8-week old female chickens; endogenous in cells; host or cells: primary chicken hepatocytes
T1 sequence (P04035 1-888): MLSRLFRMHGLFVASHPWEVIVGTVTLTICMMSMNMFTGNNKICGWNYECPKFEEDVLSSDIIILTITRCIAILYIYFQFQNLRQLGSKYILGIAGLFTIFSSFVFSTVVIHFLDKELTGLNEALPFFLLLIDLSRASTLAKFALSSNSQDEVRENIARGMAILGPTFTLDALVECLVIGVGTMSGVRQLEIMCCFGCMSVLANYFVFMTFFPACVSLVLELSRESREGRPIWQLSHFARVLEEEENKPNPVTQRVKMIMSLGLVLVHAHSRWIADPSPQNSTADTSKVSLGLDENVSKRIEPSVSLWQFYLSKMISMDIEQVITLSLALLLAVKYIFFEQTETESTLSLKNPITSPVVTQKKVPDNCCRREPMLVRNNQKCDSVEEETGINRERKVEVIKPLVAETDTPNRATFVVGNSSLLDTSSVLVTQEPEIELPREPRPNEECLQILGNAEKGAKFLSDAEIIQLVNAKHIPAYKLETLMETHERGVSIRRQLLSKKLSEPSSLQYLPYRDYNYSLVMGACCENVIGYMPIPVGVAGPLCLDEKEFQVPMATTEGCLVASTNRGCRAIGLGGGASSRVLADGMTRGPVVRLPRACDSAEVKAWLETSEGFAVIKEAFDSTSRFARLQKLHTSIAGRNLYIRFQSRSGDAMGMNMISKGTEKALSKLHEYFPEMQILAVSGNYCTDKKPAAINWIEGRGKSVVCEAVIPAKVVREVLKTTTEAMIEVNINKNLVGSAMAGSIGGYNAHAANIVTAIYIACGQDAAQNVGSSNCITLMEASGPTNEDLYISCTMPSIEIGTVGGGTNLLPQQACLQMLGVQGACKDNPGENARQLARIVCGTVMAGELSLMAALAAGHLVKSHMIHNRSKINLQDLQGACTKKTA
Procedure: (§3) This example measured the effects of the TRF and its components on the hepatic enzymatic activity of HMG-CoA reductase and cholesterol 7α-hydroxylase. […] The amount of feed consumed ranged from 11.19-11.60 g per chicken and the feeding period was 4 weeks. The birds were fasted for a period of 36 hours and refed for 48 hours prior to sacrifice (at 0800 hours).

[3] = tested on: cholesterol 7α-hydroxylase; assay: Hepatic cholesterol 7α-hydroxylase activity in chickens fed supplemented diets; assay type: in vivo, chicken; conditions: control diet + 50 ppm, 4 weeks
Procedure: as §3

[4] = tested on: chickens; assay: Plasma thromboxane B2 and platelet factor 4 in chickens fed supplemented diets; assay type: in vivo, chicken; conditions: control diet + 50 ppm, 4 weeks
From the text: We next measured the effects of TRF and its components on serum levels of apolipoprotein (a)1, apolipoprotein B, triglycerides and glucose and the plasma levels of thromboxane B2 and platelet factor 4.

[5] = biological target: T1, HMG-CoA reductase; assay: HMG-CoA reductase activity in isolated chicken hepatocytes; assay type: cell-based
Procedure: (§1) This study measured the effects of three tocotrienols isolated from rice bran on cholesterol-related enzyme activity in hepatocytes isolated from livers of 8-week old female chickens. The chickens were fed the chick mash diet for 8 weeks. They were then fasted for 40 hours and finally refed for 48 hours before sacrifice. The hepatocytes were then prepared following standard methods.
(§2) Each compound was isolated from TRF using the following protocol: A bond Elute amine column was equilibrated with 2 ml hexane. 10 mg of TRF (dissolved in 0.5 ml hexane) was bound to the amine column. The column was washed with 1 ml of hexane, then with 1 ml of 3% isopropanol in hexane. P-21 and P-25 were eluted off the column with 5% isopropanol in hexane. Then using 10% isopropanol in hexane, the impurity P-20 was eluted. α-tocotrienol was also tested.
We next measured the effects of various tocotrienols and tocotrienol-like compounds isolated from rice bran on the activity of HMG-CoA reductase. 20.0 g of stabilized rice bran was extracted with 200.0 ml of methanol to remove various UV absorbing impurities and tocotrienols (6.7 mg total). This step was repeated four times. The remaining residue was dried under vacuum in a desiccator and then heated at 180° C. for 2 hours under 30 psi pressure. Then the dried residue was extracted again with 200.0 ml methanol (3.4 mg). […]

[6] = biological target: T2, Fatty Acid Synthase (Gallus gallus, UniProt P12276); assay: Fatty acid synthase activity in isolated chicken hepatocytes; assay type: cell-based
T2 construct: hepatocytes isolated from livers of 8-week old female chickens; endogenous in cells; host or cells: primary chicken hepatocytes
T2 sequence (P12276 2-2512 limits assumed): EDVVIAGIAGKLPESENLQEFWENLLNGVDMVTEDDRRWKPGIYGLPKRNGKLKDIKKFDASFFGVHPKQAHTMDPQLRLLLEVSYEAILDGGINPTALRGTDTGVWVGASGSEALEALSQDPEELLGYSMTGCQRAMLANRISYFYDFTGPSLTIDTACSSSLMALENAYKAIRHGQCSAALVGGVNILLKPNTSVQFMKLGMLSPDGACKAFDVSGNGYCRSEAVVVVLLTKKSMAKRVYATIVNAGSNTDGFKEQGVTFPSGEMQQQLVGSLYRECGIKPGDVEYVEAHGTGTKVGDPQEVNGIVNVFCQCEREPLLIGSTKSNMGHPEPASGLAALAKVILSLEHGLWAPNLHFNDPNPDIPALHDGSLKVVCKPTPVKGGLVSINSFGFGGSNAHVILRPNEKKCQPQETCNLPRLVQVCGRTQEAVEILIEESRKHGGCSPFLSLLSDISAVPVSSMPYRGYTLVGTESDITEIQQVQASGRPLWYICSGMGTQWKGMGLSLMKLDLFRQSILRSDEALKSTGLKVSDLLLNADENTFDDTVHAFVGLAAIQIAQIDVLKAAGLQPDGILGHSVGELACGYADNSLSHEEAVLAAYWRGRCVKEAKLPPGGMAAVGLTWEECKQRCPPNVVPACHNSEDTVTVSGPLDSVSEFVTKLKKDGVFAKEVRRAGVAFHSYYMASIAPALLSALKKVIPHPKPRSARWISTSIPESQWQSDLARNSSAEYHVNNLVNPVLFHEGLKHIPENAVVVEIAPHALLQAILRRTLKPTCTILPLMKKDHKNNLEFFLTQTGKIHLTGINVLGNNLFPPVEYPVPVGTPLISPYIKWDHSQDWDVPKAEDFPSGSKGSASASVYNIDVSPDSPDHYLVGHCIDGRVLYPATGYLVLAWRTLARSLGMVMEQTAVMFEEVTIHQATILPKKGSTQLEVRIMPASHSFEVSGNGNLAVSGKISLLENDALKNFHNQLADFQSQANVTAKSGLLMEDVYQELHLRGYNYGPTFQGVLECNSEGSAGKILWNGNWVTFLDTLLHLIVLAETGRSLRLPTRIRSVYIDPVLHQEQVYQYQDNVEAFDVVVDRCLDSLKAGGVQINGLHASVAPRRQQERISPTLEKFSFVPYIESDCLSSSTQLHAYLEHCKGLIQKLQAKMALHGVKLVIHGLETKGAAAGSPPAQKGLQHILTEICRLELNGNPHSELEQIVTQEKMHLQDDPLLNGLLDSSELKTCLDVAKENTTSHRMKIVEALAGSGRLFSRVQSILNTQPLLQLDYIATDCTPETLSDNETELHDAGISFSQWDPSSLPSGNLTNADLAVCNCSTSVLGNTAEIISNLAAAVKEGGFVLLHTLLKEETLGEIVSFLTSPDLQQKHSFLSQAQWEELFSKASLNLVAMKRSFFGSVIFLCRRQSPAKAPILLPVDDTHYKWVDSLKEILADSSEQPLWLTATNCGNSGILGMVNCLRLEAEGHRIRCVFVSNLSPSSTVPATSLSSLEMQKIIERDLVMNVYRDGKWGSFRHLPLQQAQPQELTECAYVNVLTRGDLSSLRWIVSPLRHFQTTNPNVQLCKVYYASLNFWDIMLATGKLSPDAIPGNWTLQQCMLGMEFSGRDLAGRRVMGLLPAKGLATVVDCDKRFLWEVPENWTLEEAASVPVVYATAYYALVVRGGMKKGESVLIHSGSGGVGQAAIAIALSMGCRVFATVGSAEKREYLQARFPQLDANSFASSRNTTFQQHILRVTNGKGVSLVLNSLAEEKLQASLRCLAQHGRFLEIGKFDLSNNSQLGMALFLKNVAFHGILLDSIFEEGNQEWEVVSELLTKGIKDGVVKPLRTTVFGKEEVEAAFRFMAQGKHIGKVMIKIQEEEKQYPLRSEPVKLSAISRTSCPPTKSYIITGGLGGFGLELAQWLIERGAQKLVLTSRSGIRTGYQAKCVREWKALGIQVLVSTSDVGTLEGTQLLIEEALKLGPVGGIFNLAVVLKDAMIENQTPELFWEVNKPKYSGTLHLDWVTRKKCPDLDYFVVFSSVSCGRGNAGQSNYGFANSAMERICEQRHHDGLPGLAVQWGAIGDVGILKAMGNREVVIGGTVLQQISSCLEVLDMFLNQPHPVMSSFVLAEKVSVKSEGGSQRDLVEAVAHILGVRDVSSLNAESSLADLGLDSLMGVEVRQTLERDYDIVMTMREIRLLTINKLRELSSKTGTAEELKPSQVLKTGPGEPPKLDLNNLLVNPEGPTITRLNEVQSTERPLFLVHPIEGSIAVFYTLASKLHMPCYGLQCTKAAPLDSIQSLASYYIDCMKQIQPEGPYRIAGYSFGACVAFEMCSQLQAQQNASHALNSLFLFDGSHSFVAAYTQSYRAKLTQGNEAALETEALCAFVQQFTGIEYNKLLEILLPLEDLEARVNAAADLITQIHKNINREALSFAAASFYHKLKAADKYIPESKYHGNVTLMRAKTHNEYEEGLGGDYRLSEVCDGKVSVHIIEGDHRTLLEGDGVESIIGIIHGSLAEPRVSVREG
Procedure: as §1, §2

[7] = tested on: cholesterol 7α-hydroxylase; assay: Cholesterol 7α-hydroxylase activity in isolated chicken hepatocytes; assay type: cell-based
Procedure: as §1, §2

[8] = tested on: chickens; assay: Antibody titers to sheep red blood cells in chickens; assay type: in vivo, chicken; conditions: control diet + 50 ppm, 4 weeks, sheep red blood cells i.p.
Procedure: The model for this study was 6-week old female white leghorn chickens. Each group of 12 chickens was fed an unsupplemented chicken diet or a control diet supplemented with 50 ppm of a tocotrienol or 100 ppm of a commercially available hypercholesterolemic agent (Geraniol or Lovastatin). […] The chickens were fed over a period of 4 weeks, then the blood was drawn. The antibody response was determined by injecting the chickens i.p. with 0.5 ml of a 5% suspension of sheep red blood cells (RBCs) in PBS (v/v) which were previously washed three times. […] Relative IgG levels were determined by using 2-mercaptoethanol preincubation for 30 min. The relative IgM levels were calculated by subtracting the IgG antibody levels from total antibody levels. All antibody levels are expressed as the log base 2 of the highest titer that was needed to hemagglutinate an equal volume of 0.5% RBC suspension.

- HMG-CoA Reductase, percentage of control [2]: 89.43%
- maximum reduction in activity of HMG-CoA reductase [5]: 37.7%
- Fatty Acid Synthase ([6]; 10.0 μg/mL): 15.2 nmol/min/mg
- Fatty Acid Synthase, percentage of 0.0 μg/mL ([6]; 10.0 μg/mL): 88.4%
- Fatty Acid Synthase ([6]; 20.0 μg/mL): 14.3 nmol/min/mg
- Fatty Acid Synthase, percentage of 0.0 μg/mL ([6]; 20.0 μg/mL): 83.2%
- Fatty Acid Synthase ([6]; 40.0 μg/mL): 12.4 nmol/min/mg
- Fatty Acid Synthase, percentage of 0.0 μg/mL ([6]; 40.0 μg/mL): 72.1%
Structure (SMILES): CC(C)=CCC/C(C)=C/CC/C(C)=C/CC[C@]1(C)CCc2c(C)c(O)c(C)c(C)c2O1 [α-T3, α-tocotrienol]
- APO A1, percentage of control [1]: 99.43%
- APO A1 in serum [1]: 139.6 mg/100 ml
- APO B in serum [1]: 29.30 mg/100 ml
- APO B, percentage of control [1]: 88.52%
- DL-Cholesterol/Total Cholesterol [1]: 0.61
- DL-Cholesterol/Total Cholesterol, percentage of control [1]: 104.30%
- Glucose in serum [1]: 216.90 mg/100 ml
- Glucose, percentage of control [1]: 96.70%
- HDL-Cholesterol in serum [1]: 80.47 ± 0.67 mg/dL
- HDL-Cholesterol, percentage of control [1]: 96.19%
- HDL-Cholesterol/LDL-Cholesterol [1]: 2.09
- HDL-Cholesterol/LDL-Cholesterol, percentage of control [1]: 110.40%
- LDL-Cholesterol in serum [1]: 47.97 ± 0.56 mg/dL
- LDL-Cholesterol, percentage of control [1]: 87.12%
- Total Cholesterol in serum [1]: 131.71 ± 1.08 mg/dL
- Total Cholesterol, percentage of control [1]: 92.25%
- Triglycerides in serum [1]: 68.04 mg/100 ml
- Triglycerides, percentage of control [1]: 91.91%
- Cholesterol 7α-Hydroxylase, percentage of control [3]: 104.60%
- Cholesterol 7α-hydroxylase [3]: 10.69 nmol/min/mg
- Platelet Factor 4 [4]: 8.78 ng/mL
- Platelet Factor 4, percentage of control [4]: 67.07%
- Thromboxane B2 [4]: 21.63 pg/mL
- Thromboxane B2, percentage of control [4]: 83.71%
- Cholesterol 7α-hydroxylase ([7]; 10.0 μg/mL): 2.12 pmol/min/mg
- Cholesterol 7α-hydroxylase, percentage of 0.0 μg/mL ([7]; 10.0 μg/mL): 91.8%
- Cholesterol 7α-hydroxylase ([7]; 20.0 μg/mL): 2.27 pmol/min/mg
- Cholesterol 7α-hydroxylase, percentage of 0.0 μg/mL ([7]; 20.0 μg/mL): 98.7%
- Cholesterol 7α-hydroxylase ([7]; 40.0 μg/mL): 2.34 pmol/min/mg
- Cholesterol 7α-hydroxylase, percentage of 0.0 μg/mL ([7]; 40.0 μg/mL): 101.3%
- IgG antibody titers in serum [8]: 1.00 Log 2
- IgM antibody titers in serum [8]: 6.60 ± 1.24 Log 2
- Total Ab titers in serum [8]: 7.10 ± 1.51 Log 2

- HMG-CoA Reductase, percentage of control [2]: 75.83%
Structure (SMILES): CC(C)=CCC/C(C)=C/CC/C(C)=C/CCC1(C)CCc2cc(O)cc(C)c2O1 (stereo not drawn) [δ-T3, δ-tocotrienol]
- APO A1, percentage of control [1]: 99.22%
- APO A1 in serum [1]: 139.30 mg/100 ml
- APO B in serum [1]: 27.30 mg/100 ml
- APO B, percentage of control [1]: 82.48%
- DL-Cholesterol/Total Cholesterol [1]: 0.65
- DL-Cholesterol/Total Cholesterol, percentage of control [1]: 111.30%
- Glucose in serum [1]: 205.30 mg/100 ml
- Glucose, percentage of control [1]: 91.53%
- HDL-Cholesterol in serum [1]: 77.78 ± 0.97 mg/dL
- HDL-Cholesterol, percentage of control [1]: 93.08%
- HDL-Cholesterol/LDL-Cholesterol [1]: 2.15
- HDL-Cholesterol/LDL-Cholesterol, percentage of control [1]: 141.80%
- LDL-Cholesterol in serum [1]: 36.14 ± 0.97 mg/dL
- LDL-Cholesterol, percentage of control [1]: 65.64%
- Total Cholesterol in serum [1]: 119.40 ± 1.41 mg/dL
- Total Cholesterol, percentage of control [1]: 83.63%
- Triglycerides in serum [1]: 60.50 mg/100 ml
- Triglycerides, percentage of control [1]: 81.72%
- Cholesterol 7α-Hydroxylase, percentage of control [3]: 107.44%
- Cholesterol 7α-hydroxylase [3]: 10.98 nmol/min/mg
- Platelet Factor 4 [4]: 8.23 ng/mL
- Platelet Factor 4, percentage of control [4]: 62.87%
- Thromboxane B2 [4]: 18.65 pg/mL
- Thromboxane B2, percentage of control [4]: 72.17%
- IgG antibody titers in serum [8]: 1.00 Log 2
- IgM antibody titers in serum [8]: 8.25 ± 1.96 Log 2
- Total Ab titers in serum [8]: 8.67 ± 1.78 Log 2
